Data from USRE38352E1, “Polymerase chain reaction assays for monitoring antiviral therapy and making therapeutic decisions in the treatment of acquired immunodeficiency syndrome” (priority 1992, dated 2003).
“And” between values parts separate entries of the source, which are not always exact repeats. Equal values may be shown once.

System: plasma HIV RNA
Assay: Plasma HIV RNA copy number by cDNA gene amplification (PCR) and enzyme-linked affinity assay
Type: in vivo, human (HIV antibody-positive subjects)
Description: After informed consent was obtained, whole blood samples were collected by venipuncture in the presence of acid-citrate-dextrose as an anticoagulant. A single plasma sample was collected from 39 HIV antibody-positive subjects who were not receiving antiretroviral therapy at the time of collection and from 33 HIV antibody-positive subjects who were currently on and had received AZT for a minimum of 3 mo.
Two plasma samples were collected from an additional 27 subjects before and 1 month after initiation of dideoxynucleoside therapy. 18 of these subjects received 500 mg/d of AZT orally. Seven subjects received a combination of zidovudine (150-600 mg/d) and 2′,3′-dideoxyinosine (ddI) (134-500 mg/d). Two patients received 500 mg/d of ddI alone (see Table I for individual subject characteristics). Finally, nine of these subjects had two plasma samples taken 1-3 wk. before initiating antiretroviral therapy and two plasma samples taken 1 and 2 mo. after commencing therapy. Plasma was separated within 4 h. by centrifugation at 500 g for 10 min. A second centrifugation was performed on the plasma at 500 g for 30 min. to remove any cellular material. 200 μl of plasma was then mixed with 200 μl of a solution containing 5M guanidinium thiocyanate, vortexed briefly, and stored at −70° C. until further use. All samples were assayed within 3 mo. of collection. To decrease variance, all specimens to be compared from the same subject were run in the same assay.
RNA was extracted from plasma by the method described in Chomczynski et al., 1987, Ann. Biochem. 162:156-159. Briefly, 200 μl of clarified plasma to which 200 μl of 5M guanidinium thiocyanate had previously been added was extracted with phenol/chloroform and precipitated with isopropanol. The resulting pellet was then washed in 75% ethanol, dried, and brought up in diethylpyrocarbonate treated, glass distilled water.
HIV RNA was transcribed to cDNA using Moloney murine leukemia virus reverse transcriptase (Bethesda Research Laboratories, Gaithersburg, Md.) by the method described in Kawasaki, 1990, “In PCR Protocols: A Guide to Methods and Applications” pp. 21-27, M. A. Innis, D. H. Gelfand, J. J. Sninsky, and T. J. White, eds. Academic Press, Berkeley, Calif. Oligomers used for amplification included SK38, SK39, and SK19 (Kellog et al., 1990, “In PCR Protocols: A Guide to Methods and Applications,” pp. 337-348, M. A. Innis, D. H. Gelfand, J. J. Sninsky, and T. J. White, eds. Academic Press, Berkeley, Calif.). Biotinylation of SK38 and horseradish peroxidase (HRP) labeling of probe SK19 were prepared as described in Levenson et al., 1990, “In PCR Protocols: A Guide to Methods and Applications,” pp. 99-112M. S. Innis, D. H. Gelfand, J. J. Sninsky, and T. J. White, eds. Academic Press, Berkeley, Calif. Amplification of HIV cDNA was carried out as follows: to a 100-μl reaction mixture was added the cDNA, 50 pmol of primers SK38 and SDK39, […] of each dNTP, 10 mM Tris (pH 8.3), 2.5 mM MgCl2, 50 mM KCl, and 2.5 U of recombiTaq DNA polymerase (Perkin-Elmer Cetus, Norwalk, Conn.). The mixture was then overlaid with 50 μl of mineral oil. Tubes were placed in a DNA thermal cycler (Perkin-Elmer Cetus) for 30 cycles of amplification with the following program: 95° C./30 s, 55° C./30s, and 72° C./60 s for denaturation, annealing, and extension, respectively. Negative and positive controls which included both high and low copy number HIV RNA and DNA were added at each step.
To detect and quantitate PCR product, 96-well microplates (Maxisorp; Nunc, Naperville, Ill.) were coated with 100 μl of a 0.1 mg/ml solution of avidin (Sigma Chemical Co., St. Louis, Mo.) in 50 mM Na2CO3 (pH 9.6) overnight at room temperature. Wells were then washed twice with PBS. Wells were then filled with 300 μl of a blocking solution containing 5X Denhardt's solution, 1% gelatin (Sigma), […] sheared herring sperm DNA (Promega Biotec, Madison, Wis.) at least overnight at 4° C. […]

Compound: Cc1cn([C@H]2C[C@H](N=[N+]=[N-])[C@@H](CO)O2)c(=O)[nH]c1=O [AZT, zidovudine]
- mean HIV RNA copy number (14 subjects on AZT with CD4 count <200/mm^3): 295±5 per 200 μl of plasma
- mean HIV RNA copy number (19 subjects on AZT with CD4 count >200/mm^3, below level of detection): 16±5 per 200 μl of plasma
- mean plasma HIV RNA copy number (33 subjects currently on AZT (minimum 3 mo), mean±SEM, untreated 690±360): 134±219 per 200 μl of plasma
- subjects with positive HIV RNA signal (AZT-treated subjects with <200 CD4 cells): 9 of 14
- subjects with positive HIV RNA signal (all subjects receiving AZT, untreated 32 of 39): 16 of 33
- Post HIV RNA (in vivo): 2769/437 copy number/200 μl of plasma
- Pre HIV RNA (in vivo): 2769/437 copy number/200 μl of plasma
- subjects with detectable HIV RNA signal (in vivo): 7 of 19
- Post HIV RNA (individual patient, 1 mo after initiation, AZT 500 mg/d): 77 copy number/200 μl of plasma and 57 copy number/200 μl of plasma and 42 copy number/200 μl of plasma and 94/94 copy number/200 μl of plasma and 0/0 copy number/200 μl of plasma (2×) and 65 copy number/200 μl of plasma and 52 copy number/200 μl of plasma and 50 copy number/200 μl of plasma and 45 copy number/200 μl of plasma and 95/95 copy number/200 μl of plasma and 0 copy number/200 μl of plasma (3×) and 72 copy number/200 μl of plasma and 925 copy number/200 μl of plasma and 90 copy number/200 μl of plasma
- Pre HIV RNA (individual patient, before initiation of therapy): 100 copy number/200 μl of plasma and 87 copy number/200 μl of plasma and 40 copy number/200 μl of plasma and 94/94 copy number/200 μl of plasma and 0/0 copy number/200 μl of plasma (2×) and 93 copy number/200 μl of plasma and 105 copy number/200 μl of plasma and 123 copy number/200 μl of plasma and 78 copy number/200 μl of plasma and 95/95 copy number/200 μl of plasma and 301 copy number/200 μl of plasma and 958 copy number/200 μl of plasma and 2014 copy number/200 μl of plasma and 106 copy number/200 μl of plasma and 130 copy number/200 μl of plasma and 550 copy number/200 μl of plasma
